From ChEMBL document CHEMBL5465560, “Selectivity Literature for EUbOPEN Chemogenomic Library” (2024)

Tests used:
[1] = target: Rho-associated protein kinase 2 (Homo sapiens, UniProt O75116); experiment: Selectivity interaction (Millipore kinase profiler) EUB0000124b ROCK2; conditions: at 10 µM
[2] = target: T1, Mitogen-activated protein kinase kinase kinase kinase 2 (Homo sapiens) (UniProt Q12851); experiment: Selectivity interaction (Kinase panel (KiNativ target engagement assay in Jurkat cells)) EUB0001635a MAP4K2; assay type: cell-based; conditions: Selectivity number of off-targets 0.0, Selectivity number of targets 233.0, Source Knowledge https://www.sciencedirect.com/science/article/pii/S2451945619300674?via%3Dihub, at 1 µM
T1 sequence (whole entry): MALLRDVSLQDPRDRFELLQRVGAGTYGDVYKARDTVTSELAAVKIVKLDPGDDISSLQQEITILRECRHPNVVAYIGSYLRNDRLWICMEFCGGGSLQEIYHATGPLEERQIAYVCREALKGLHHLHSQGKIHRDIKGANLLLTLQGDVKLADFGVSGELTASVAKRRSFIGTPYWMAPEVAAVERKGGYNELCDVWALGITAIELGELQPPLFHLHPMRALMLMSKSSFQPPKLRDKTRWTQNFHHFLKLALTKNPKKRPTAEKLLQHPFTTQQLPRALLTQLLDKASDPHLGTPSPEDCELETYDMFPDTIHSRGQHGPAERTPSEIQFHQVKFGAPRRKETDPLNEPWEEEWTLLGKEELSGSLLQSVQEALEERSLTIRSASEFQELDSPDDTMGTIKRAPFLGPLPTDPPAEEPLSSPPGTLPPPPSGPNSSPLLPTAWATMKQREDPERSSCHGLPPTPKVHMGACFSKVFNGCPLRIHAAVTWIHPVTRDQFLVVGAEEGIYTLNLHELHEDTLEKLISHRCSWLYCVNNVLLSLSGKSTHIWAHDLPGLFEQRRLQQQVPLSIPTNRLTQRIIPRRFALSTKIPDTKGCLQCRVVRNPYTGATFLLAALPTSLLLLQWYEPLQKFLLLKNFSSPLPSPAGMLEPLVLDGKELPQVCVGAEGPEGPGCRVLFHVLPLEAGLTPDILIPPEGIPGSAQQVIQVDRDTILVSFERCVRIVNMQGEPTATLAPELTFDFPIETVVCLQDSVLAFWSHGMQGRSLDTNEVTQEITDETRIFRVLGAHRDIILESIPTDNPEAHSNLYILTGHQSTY

[3] = target: Myosin light chain kinase, smooth muscle (Homo sapiens, UniProt Q15746); experiment: Selectivity interaction (Kinase panel (Invitrogen)) EUB0000639a MYLK; conditions: at 200 nM
[4] = target: T2, Tyrosine-protein kinase Tec (Homo sapiens) (UniProt P42680); experiment: Selectivity interaction (Kinase panel (Invitrogen)) EUB0000639a TEC; conditions: at 200 nM
T2 sequence (whole entry): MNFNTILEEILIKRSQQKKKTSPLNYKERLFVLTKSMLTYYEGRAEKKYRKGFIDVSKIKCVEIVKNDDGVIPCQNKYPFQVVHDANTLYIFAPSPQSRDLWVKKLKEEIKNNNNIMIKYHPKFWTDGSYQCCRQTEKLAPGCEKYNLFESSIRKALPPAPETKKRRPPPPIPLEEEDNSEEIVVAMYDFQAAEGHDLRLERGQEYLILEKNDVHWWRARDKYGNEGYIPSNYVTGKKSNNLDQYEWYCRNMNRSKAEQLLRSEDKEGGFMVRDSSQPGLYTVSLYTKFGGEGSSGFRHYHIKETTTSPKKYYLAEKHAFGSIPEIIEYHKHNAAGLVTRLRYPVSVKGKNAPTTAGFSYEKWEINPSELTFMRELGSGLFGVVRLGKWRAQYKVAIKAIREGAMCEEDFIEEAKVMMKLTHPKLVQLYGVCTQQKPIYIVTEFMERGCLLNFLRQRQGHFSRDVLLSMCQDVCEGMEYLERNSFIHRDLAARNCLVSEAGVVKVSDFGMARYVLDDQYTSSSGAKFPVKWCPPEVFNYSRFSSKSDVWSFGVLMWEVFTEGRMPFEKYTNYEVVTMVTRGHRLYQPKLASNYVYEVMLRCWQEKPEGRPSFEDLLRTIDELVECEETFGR

[5] = target: Calcium/calmodulin-dependent protein kinase type II subunit gamma (Homo sapiens) (UniProt Q13555); experiment: Selectivity interaction (KinomeScan (DiscoverX)) EUB0000092b CAMK2G; conditions: at 10 µM
[6] = target: T3, Cytoplasmic tyrosine-protein kinase BMX (Homo sapiens) (UniProt P51813); experiment: Selectivity interaction (KinomeScan (DiscoverX)) EUB0000618a BMX; conditions: at 10 µM
T3 sequence (whole entry): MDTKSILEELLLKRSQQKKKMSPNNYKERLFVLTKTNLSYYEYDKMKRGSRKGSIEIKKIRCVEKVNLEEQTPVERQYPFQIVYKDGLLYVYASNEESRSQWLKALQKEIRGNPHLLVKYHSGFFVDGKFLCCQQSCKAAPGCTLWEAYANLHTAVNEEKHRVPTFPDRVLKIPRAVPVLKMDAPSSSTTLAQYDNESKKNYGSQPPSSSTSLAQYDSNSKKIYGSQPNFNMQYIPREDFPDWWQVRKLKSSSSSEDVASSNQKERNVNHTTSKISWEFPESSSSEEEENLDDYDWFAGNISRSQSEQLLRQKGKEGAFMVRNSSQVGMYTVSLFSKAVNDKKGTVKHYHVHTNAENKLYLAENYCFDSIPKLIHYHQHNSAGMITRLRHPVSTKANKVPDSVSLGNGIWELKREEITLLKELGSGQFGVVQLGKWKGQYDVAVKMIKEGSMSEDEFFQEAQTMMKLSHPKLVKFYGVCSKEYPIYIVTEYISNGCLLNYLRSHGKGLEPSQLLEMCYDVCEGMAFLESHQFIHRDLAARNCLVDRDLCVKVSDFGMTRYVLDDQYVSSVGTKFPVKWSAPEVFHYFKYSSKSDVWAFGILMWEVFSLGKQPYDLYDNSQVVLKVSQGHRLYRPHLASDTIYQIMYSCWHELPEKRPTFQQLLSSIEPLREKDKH

[7] = target: Serine/threonine-protein kinase Chk2 (Homo sapiens) (UniProt O96017); experiment: Selectivity interaction (Upstate Kinase Profiler service (Millipore)) EUB0000056c CHEK2; conditions: at 1 µM
[8] = target: CDK8/Cyclin C (Homo sapiens) (UniProt P49336+P24863); experiment: Selectivity interaction (LanthaScreen Eu Kinase Binding Assay) EUB0001632a CDK8; assay type: protein-complex assay; conditions: at 10 µM
[9] = target: Histone-lysine N-methyltransferase 2A (Homo sapiens) (UniProt Q03164); experiment: Selectivity interaction (Methyltransferase screen (radiometric assays, panel of 8 PRMTs, 21 protein lysine methyltransferases, 3 DNA methyltransferases, and one RNA methyltransferase)) EUB0000271b MLL
[10] = target: 3',5'-cyclic-AMP phosphodiesterase 4D (Homo sapiens) (UniProt Q08499); experiment: Selectivity interaction (Panel of non-epigenetic targets (kinases, GPCRs, ion channels, and transporters, Eurofins) ) EUB0000271b PDE4D; conditions: at 1 µM

Sequence of Histone-lysine N-methyltransferase 2A (Homo sapiens) (Q03164 1-2718 limits assumed): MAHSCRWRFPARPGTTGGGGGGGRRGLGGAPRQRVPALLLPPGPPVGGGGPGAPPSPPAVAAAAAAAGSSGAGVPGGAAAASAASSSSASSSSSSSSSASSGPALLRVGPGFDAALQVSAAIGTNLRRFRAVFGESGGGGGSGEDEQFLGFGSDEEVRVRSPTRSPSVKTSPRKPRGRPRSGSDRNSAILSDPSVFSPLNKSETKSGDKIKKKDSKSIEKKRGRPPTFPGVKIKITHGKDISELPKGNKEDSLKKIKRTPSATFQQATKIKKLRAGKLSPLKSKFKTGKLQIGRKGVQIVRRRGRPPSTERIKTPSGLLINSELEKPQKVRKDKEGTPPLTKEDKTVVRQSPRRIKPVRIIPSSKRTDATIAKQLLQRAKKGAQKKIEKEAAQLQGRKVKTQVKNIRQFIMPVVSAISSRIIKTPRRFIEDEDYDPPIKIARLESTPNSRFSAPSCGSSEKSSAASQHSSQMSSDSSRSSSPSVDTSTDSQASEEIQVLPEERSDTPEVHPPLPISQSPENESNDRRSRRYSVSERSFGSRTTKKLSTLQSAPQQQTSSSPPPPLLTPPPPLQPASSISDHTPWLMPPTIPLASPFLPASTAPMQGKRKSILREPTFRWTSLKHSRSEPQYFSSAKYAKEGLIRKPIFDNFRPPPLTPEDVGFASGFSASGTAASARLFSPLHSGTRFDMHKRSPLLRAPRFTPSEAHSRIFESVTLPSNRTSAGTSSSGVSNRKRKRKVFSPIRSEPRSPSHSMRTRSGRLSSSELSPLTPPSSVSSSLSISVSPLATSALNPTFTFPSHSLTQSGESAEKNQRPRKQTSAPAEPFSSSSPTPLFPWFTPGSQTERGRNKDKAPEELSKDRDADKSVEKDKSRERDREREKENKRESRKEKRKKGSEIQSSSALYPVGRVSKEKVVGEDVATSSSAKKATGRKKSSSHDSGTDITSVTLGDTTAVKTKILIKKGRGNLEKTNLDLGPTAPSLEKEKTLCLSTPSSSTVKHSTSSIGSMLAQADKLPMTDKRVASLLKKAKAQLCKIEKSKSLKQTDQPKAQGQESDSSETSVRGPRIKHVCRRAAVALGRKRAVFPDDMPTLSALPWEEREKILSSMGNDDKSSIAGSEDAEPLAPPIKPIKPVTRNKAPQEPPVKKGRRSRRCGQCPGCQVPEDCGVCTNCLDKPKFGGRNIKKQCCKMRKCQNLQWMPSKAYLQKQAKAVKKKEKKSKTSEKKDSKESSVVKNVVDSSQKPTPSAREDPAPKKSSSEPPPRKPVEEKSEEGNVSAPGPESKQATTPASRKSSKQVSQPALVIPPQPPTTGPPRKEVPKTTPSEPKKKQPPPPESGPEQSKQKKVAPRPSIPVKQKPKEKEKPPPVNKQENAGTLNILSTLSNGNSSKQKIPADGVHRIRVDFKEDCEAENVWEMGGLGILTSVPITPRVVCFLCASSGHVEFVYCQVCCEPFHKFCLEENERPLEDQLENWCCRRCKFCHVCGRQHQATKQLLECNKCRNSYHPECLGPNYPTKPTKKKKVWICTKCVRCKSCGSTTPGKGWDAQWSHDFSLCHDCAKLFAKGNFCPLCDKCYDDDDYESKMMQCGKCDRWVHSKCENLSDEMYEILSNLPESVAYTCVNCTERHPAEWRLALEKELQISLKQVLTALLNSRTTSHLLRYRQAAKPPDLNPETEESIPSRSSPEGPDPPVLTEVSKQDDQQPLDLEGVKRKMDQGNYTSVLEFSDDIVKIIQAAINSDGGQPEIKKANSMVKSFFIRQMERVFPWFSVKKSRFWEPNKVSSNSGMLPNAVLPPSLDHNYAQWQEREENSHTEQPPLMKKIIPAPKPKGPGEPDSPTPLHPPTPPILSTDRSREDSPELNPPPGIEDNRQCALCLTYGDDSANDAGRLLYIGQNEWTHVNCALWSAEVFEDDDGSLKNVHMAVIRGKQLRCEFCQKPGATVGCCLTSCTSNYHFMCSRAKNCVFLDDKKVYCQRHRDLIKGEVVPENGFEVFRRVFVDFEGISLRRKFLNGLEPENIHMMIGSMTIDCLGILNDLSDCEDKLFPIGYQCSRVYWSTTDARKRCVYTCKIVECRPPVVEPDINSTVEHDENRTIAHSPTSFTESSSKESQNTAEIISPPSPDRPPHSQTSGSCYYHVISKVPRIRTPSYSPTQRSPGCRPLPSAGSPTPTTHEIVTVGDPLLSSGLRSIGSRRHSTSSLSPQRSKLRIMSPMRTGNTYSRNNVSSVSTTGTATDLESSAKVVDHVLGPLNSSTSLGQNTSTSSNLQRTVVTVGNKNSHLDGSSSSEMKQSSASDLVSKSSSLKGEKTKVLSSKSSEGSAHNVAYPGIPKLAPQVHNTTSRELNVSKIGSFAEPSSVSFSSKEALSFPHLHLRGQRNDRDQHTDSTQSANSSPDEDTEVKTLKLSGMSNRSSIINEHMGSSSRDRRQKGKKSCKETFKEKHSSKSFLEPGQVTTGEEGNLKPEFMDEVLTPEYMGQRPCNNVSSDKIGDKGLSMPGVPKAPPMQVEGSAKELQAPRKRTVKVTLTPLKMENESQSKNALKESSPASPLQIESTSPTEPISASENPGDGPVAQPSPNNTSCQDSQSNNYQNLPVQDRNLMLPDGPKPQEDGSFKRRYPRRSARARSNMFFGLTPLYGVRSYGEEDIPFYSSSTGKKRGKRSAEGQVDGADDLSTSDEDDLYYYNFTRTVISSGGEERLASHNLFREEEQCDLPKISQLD
Sequence of Histone-lysine N-methyltransferase 2A (Homo sapiens) (Q03164 2719-3969 limits assumed): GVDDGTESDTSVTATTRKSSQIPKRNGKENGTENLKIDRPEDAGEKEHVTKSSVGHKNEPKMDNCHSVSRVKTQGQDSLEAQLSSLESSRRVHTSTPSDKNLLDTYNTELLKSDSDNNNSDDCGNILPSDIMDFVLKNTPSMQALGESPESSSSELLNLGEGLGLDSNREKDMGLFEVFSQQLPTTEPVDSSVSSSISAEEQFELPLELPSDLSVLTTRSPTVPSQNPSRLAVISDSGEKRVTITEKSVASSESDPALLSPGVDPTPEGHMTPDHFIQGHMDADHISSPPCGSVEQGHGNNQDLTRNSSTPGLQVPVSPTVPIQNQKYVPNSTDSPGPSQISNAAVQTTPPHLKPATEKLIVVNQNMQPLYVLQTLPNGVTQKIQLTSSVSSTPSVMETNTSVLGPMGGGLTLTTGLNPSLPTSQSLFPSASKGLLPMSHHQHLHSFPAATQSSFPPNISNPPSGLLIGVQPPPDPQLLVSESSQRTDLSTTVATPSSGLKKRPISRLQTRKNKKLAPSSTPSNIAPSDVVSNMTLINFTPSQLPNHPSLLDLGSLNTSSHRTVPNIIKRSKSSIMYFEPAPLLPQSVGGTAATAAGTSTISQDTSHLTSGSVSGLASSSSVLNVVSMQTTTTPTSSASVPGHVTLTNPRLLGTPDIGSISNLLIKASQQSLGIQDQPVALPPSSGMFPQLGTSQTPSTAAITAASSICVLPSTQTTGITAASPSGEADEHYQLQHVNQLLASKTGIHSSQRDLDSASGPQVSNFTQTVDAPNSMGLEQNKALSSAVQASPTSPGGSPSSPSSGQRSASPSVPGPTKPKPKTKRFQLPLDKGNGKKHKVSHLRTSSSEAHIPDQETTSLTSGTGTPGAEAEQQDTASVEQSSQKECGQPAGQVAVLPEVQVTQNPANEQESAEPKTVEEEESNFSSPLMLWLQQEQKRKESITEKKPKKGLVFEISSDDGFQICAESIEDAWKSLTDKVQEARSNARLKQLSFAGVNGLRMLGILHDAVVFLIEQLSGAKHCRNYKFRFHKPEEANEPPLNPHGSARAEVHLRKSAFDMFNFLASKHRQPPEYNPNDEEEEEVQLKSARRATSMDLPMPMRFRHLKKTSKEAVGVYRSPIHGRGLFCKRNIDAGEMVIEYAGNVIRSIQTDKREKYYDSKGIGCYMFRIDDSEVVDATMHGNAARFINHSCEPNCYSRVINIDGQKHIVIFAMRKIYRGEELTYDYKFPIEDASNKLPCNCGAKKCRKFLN
Sequence of Serine/threonine-protein kinase Chk2 (Homo sapiens) (O96017 whole entry): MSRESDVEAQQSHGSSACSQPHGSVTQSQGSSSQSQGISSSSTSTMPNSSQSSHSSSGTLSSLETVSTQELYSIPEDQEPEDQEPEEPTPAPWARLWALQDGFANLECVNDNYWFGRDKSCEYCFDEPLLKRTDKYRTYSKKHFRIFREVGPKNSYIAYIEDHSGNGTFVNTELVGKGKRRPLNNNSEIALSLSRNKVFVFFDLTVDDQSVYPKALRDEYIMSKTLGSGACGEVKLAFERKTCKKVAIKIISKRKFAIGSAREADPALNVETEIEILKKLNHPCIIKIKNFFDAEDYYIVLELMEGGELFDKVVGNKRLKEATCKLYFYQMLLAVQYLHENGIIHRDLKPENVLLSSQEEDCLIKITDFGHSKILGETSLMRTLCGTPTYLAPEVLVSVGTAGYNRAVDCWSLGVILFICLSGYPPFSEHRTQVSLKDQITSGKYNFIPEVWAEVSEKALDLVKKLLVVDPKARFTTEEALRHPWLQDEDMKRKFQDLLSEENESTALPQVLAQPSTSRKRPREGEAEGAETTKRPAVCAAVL
Sequence of Calcium/calmodulin-dependent protein kinase type II subunit gamma (Homo sapiens) (Q13555 whole entry): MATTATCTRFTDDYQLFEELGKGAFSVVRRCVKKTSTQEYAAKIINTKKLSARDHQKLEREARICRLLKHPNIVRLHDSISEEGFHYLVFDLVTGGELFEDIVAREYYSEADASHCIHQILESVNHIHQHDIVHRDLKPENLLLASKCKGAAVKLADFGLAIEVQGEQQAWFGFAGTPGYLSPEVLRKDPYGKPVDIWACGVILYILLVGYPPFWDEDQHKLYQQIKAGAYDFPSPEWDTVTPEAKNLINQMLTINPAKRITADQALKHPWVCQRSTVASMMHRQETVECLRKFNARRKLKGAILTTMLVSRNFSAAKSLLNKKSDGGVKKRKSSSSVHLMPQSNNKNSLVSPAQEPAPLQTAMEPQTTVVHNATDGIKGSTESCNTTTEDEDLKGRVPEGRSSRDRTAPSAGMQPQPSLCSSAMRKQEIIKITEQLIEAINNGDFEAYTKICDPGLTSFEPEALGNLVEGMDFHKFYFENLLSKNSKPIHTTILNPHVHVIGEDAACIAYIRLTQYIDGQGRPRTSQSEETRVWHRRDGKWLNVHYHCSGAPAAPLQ

CC(=O)Nc1cccc(-n2c(=O)n(C3CC3)c(=O)c3c(Nc4ccc(I)cc4F)n(C)c(=O)c(C)c32)c1
% of control [1]: 99%

C=CC(=O)Nc1ccc(C(=O)Nc2[nH]nc3c2CN(C(=O)N[C@H](CN(C)C)c2ccccc2)C3(C)C)cc1
% of engagement [2]: -14.9%

CC[C@@H]1[C@H](F)C(=O)N[C@@H]1COc1nccc2cc(C(N)=O)c(OC)cc12 [ZIMLOVISERTIB]
% of inhibition [3]: 1%
% of inhibition [4]: -4.01%

CCC(=O)N1CCN(c2ccc(-n3c(=O)ccc4cnc5ccc(-c6cnc7ccccc7c6)cc5c43)cc2C(F)(F)F)CC1
% of control [5]: 79%

O[C@H]1CC[C@H](Nc2ncc3nc(Nc4c(F)cc(F)cc4F)n([C@H]4CCOC4)c3n2)CC1
% of control [6]: 100%

Cc1ccc(-c2ccc3c(ccc4sc5c(c43)NC[C@@H](C)NC5=O)n2)cn1
% of inhibition [7]: 44%

Cn1cc(-n2cnc3c(NCc4nc5cc(Cl)c(Cl)cc5[nH]4)nc(N4CCOCC4)nc32)cn1
% of inhibition [8]: 17.1%

Cc1cc(C)cc([C@@H]2c3cc(C)ccc3NC(=O)CN2C(=O)c2ccc(Br)s2)c1
% of activity ([9]; at 1 µM): 99.7%
% of activity ([9]; at 10 µM): 103%
% of inhibition [10]: -12%
